Here are results for eight compounds from paper PMC7000209, “Novel small molecule modulators of quorum sensing in avian pathogenic Escherichia coli (APEC)” (Virulence, 2018).

The subject of test [1] is AI-2 activity of APEC O2. The experiment in a line: AI-2 bioluminescence indicator assay, APEC O2. It counts as cell-based, avian pathogenic E. coli (APEC) O2. As to conditions: Escherichia coli, read-out: % Inhibtion of AI-2 activity. As for the experimental part: (§1) Overnight culture of APEC O78 prepared in LB broth was adjusted to an optical density (OD600) of 0.05 (7 × 10^7 CFU/mL) in fresh LB broth. One hundred micro-liters of the culture was transferred to a 96-well plate and 1µL (100 μM final concentration) of the compound was added to each well using a pin tool. Chloramphenicol (40 μg/mL) or kanamycin (30 μg/mL) and 1μL of 100% DMSO were included as controls in each plate. Plates were incubated at 37 °C for 10 h with shaking in a Sunrise^TM Tecan plate reader (Tecan Group Ltd. San Jose, CA, USA) and the growth was kinetically monitored every 30 min by measuring the OD at 600 nm.
(§2) The AI-2 bioluminescence assay was performed as described previously. Briefly, APEC O78 cultures grown in the presence of SMs (see above) were centrifuged at 5000 × g for 10 min, and cell-free culture supernatants were prepared by using a 0.22 µm filter 96 well plate (Millipore). The bioluminescence reporter V. harveyi BB170 (AI-1^+ and AI-2^-) was grown overnight in AB medium at 30 °C aerobically with shaking. The overnight culture was diluted to 1:5000 in fresh AB medium and incubated at 30 °C for 3 h. Following incubation, 180 μL of the V. harveyi BB170 culture was distributed into each well of a 96-well plate and mixed with 20 µL of the cell free culture supernatant, the plate was then incubated at 30 °C for 2.5 h in the dark and the bioluminescence was measured using in vivo imaging system (IVIS Lumina Series III, PerkinElmer, USA). […] Cell-free culture supernatants collected from overnight cultures of V. harveyi BB120 (AI-1^+andAI-2^+) and E. coli DH5α (a strain lacks AI-2) were used as controls. Bioluminescence of SMs treated culture supernatants were compared to DMSO treated control. The Z-score was calculated to evaluate the quality of the bioluminescence screening. Four independent experiments were conducted for the 69 compounds that inhibited ≥ 75% of the AI-2 mediated bioluminescence and the average inhibition percentage was calculated.
(§3) The selected compounds were also tested for inhibition of AI-2 production in other APEC serotypes such as O1, O2, O8, O15, O18, O35, O109, and O115 that are commonly implicated in colibacillosis using the same procedure described above.

In test [2] the test system is QS-regulated and virulence factors genes of APEC O78. Briefly: qRT-PCR of QS-regulated and virulence factor genes. It counts as cell-based, avian pathogenic E. coli (APEC) O78. As to conditions: APEC O78, 100 µM, 10 h, ∆∆Ct vs DMSO. Here is the method:
The effect of the selected AI-2 inhibitors on the expression of QS-regulated and virulence factors genes of APEC was determined using qRT-PCR. APEC O78 was grown in the presence of 100 µM of each compound in a 96-well plate at 37 °C for 10 h. APEC O78 culture treated with 1µL of 100% DMSO was used as control. Total RNA was extracted from duplicate wells for each compound (200 µL) using a miRNeasy Mini Kit (Qiagen). RNA quality and quantity was determined by nanodrop 2000 C spectrophotometer (Thermo scientific). Traces of DNA were removed using Genomic DNA removal mix (Qiagen). Approximately, 5 μg of purified RNA was used to synthesize cDNA using the Qiagen RT^2 First Strand Kit (Qiagen). The qRT-PCR was performed using SensiMix^TM SYBR® Hi-ROX qPCR Master Mix (Bioline) according to manufacturer instructions in a realplex^2 mastercycler (Eppendorf) with 55 °C annealing temperature. Gene-specific primers were designed using PrimerQuest Tool and obtained from integrated DNA technologies (IDT). The data were normalized to the house-keeping gene, glyceraldehyde-3-phosphate dehydrogenase (GAPDH). The relative fold change was calculated using the ∆∆Ct method. Three independent experiments were conducted.

In test [3] the test system is AI-2 activity of O18. Briefly: AI-2 bioluminescence indicator assay, APEC O18. As to conditions: Escherichia coli, read-out: % Inhibtion of AI-2 activity, serotype O18, bioluminescence vs DMSO treated control. Type of test: cell-based, avian pathogenic E. coli (APEC) O18. As for the experimental part:
as §1, §2, §3

The subject of test [4] is APEC O2 in HD-11 cells. The experiment in a line: Intracellular survival assay, APEC O2 in HD-11 cells. Type of test: cell-based, avian pathogenic E. coli (APEC) O2. As to conditions: MOI 100, 100 µM, 6 h; for reduction of intracellular survival of APEC O2: vs DMSO treated control. As for the experimental part: The effect of the selected AI-2 inhibitors on the survival of APEC in macrophage cells was tested as described before. Briefly, HD-11 cells was grown as described above and infected with 1 × 10^7 CFU (MOI = 100) of mid-log phase APEC strains (O78, O1 and O2) at 37 °C for 1 h. Cells were washed with PBS and treated with gentamicin (150 μg/mL) for 1 h to kill the extracellular bacteria. The cells were then washed and incubated with 100 µM of each compound in media containing 10 μg/mL of gentamicin at 37 °C for 6 h. Following treatment, cells were washed, lysed with 0.1% Triton X-100 for 5 min, ten-fold serially diluted in PBS and plated on LB agar plates to determine CFUs. Cells treated with chloramphenicol (40 μg/mL) and 1 μL of 100% DMSO were used as controls. The experiment was conducted two times with four replicates in each experiment. Intracellular survival was expressed as the log change of APEC CFUs in the AI-2 inhibitors treated cells.

Test [5] concerns AI-2 activity of APEC O78. Briefly: AI-2 bioluminescence indicator assay (V. harveyi BB170), APEC O78 supernatant. As to conditions: Escherichia coli, read-out: % Inhibtion of AI-2 activity. It counts as cell-based, avian pathogenic E. coli (APEC) O78. Here is the method: as §1, §2
Test [6] deals with AI-2 activity of O109. Briefly: AI-2 bioluminescence indicator assay, APEC O109. It counts as cell-based, avian pathogenic E. coli (APEC) O109. As to conditions: Escherichia coli, read-out: % Inhibtion of AI-2 activity, serotype O109, bioluminescence vs DMSO treated control. As for the experimental part: as §1, §2, §3
Test [7] deals with AI-2 activity of O15. Briefly: AI-2 bioluminescence indicator assay, APEC O15. Type of test: cell-based, avian pathogenic E. coli (APEC) O15. As to conditions: Escherichia coli, read-out: % Inhibtion of AI-2 activity, serotype O15, bioluminescence vs DMSO treated control. Here is the method: as §1, §2, §3
Test [8] has as its system AI-2 activity of O35. The experiment in a line: AI-2 bioluminescence indicator assay, APEC O35. It counts as cell-based, avian pathogenic E. coli (APEC) O35. As to conditions: Escherichia coli, read-out: % Inhibtion of AI-2 activity, serotype O35, bioluminescence vs DMSO treated control. As for the experimental part: as §1, §2, §3

The structures appear in SMILES notation. A value given as a limit tells only on which side of the number the result lay.

Turning to `O=[N+]([O-])c1cccc(S(=O)(=O)Nc2ccc(Br)cc2)c1` [C6, N-(4-bromophenyl)-3-nit robenzenesulfonamide], the inhibition at 100 µM in test [1] stood at 93%. For the same compound, in test [2], the “expression of cheW” value is on record as “down-regulated”, the “expression of csrA” value is “down-regulated”, the “expression of fliP” value is reported as “down-regulated” and the expression of fpr result was “down-regulated”. In addition, in test [2], the expression of hha entry is “down-regulated” and the “expression of murD” value was “down-regulated”. Also, the inhibition at 100 µM in test [3] is not below 75%. In addition, in test [4], the “clearance of intracellular APEC O2” value is on record as 100% and the “reduction of intracellular survival of APEC O2” value (“reduction” for short) is given as ~ 3.3 logs. Also, the inhibition at 100 µM in test [5] amounted to 92%. Moreover, the inhibition at 100 µM in test [6] was found to be 60%.

In the case of `Fc1ccc(CN2CCCN(Cc3nc(-c4ccc(C(F)(F)F)cc4)no3)CC2)cc1` [C9, 1-(4-fluorobenzyl)-4-({3-[4-(trifluoromethyl)phenyl]-1,2,4-oxadiazol-5-yl}methyl)-1,4-diazepane], the inhibition at 100 µM in test [1] came out at 51%. Further, in test [2], the “expression of bolA” value is “down-regulated”, the “expression of cheW” value was “down-regulated”, the “expression of csrA” value is reported as “down-regulated” and the expression of iss result is recorded as “up-regulated”. For the same compound, in test [2], the “expression of murD” value is reported as “down-regulated”, the “expression of nlpC” value is listed as “up-regulated” and the “expression of ugpC” value is listed as “down-regulated”. Further, in test [3], the inhibition at 100 µM is 14%. For the same compound, the inhibition at 100 µM in test [7] came out at 0%. Moreover, in test [4], the “clearance of intracellular APEC O2” value is recorded as 100% and the “reduction” value was ~ 3.3 logs. Also, the inhibition at 100 µM in test [8] was determined as 36%. The inhibition at 100 µM in test [5] stood at 79%. Also, the inhibition at 100 µM in test [6] turned out to be 66%.

Consider `CS/C(N)=N/N=C/c1cc(C)ccc1O` [C4, methyl N'-(2-hydroxy-5-methylbenzylidene)h ydrazonothiocarbamate], for which the inhibition at 100 µM in test [1] is 76%; in test [3], 54%; in test [7] it was 46%; in test [8] it was 60%; in test [5], 75%; in test [6], 67%. For the same compound, the “expression of cheW” value in test [2] is given as “down-regulated”. Further, in test [2], the “expression of csrA” value is “down-regulated”. The “expression of iucD” value in test [2] is on record as “down-regulated”. For the same compound, in test [2], the “expression of luxS” value is recorded as “did not”. Moreover, in test [2], the expression of pfs entry is on record as “up-regulated”. Moreover, in test [4], the “reduction” value was “up to 0.8 logs”.

In the case of `OCCC1CN(C2CCN(c3ccccc3)CC2)CCN1CCCc1ccccc1` (stereo not drawn) [C10, 2-[4-(1-phenyl-4-piperidinyl)-1-(3-phenylpropyl)-2-piperazinyl]ethanol], the inhibition at 100 µM stood at 89% in test [1]; 35% in test [3]; 22% in test [7]; 47% in test [8]; 84% in test [5]; 57% in test [6]. For the same compound, the “expression of fliP” value in test [2] is “down-regulated”. In addition, the “expression of frwC” value in test [2] is on record as “down-regulated”. In addition, in test [2], the expression of iss result is “down-regulated”. The “clearance of intracellular APEC O2” value in test [4] was found to be 100%. In addition, in test [4], the “reduction” value is ~ 3.3 logs.

Regarding `NC(=O)c1ccccc1Nc1cccc(C(F)(F)F)c1` [C3, 2-{[3-(trifluoromethyl)phenyl]amino}benzamide], the inhibition at 100 µM was determined as 54% in test [1]; 8% in test [3]; 0% in test [7]; 37% in test [8]; 78% in test [5]; 0% in test [6]. The expression of fpr entry in test [2] is “down-regulated”.

As for `O=C(CCN1CCN(c2ccccc2F)CC1)Nc1ccc(Br)cc1` [C7, N-(4-bromophenyl)-3-[4-(2-fluorophenyl)-1-piperazinyl]propanamide], the inhibition at 100 µM is 83% in test [1]; 48% in test [3]; 36% in test [7]; 62% in test [8]; 94% in test [5]; 67% in test [6]. In test [2], the “expression of nlpC” value was “up-regulated”. Moreover, the “reduction” value in test [4] is “up to 0.8 logs”.

Regarding `COCCN1CCC(CN(Cc2ccncc2)Cc2ccccc2Cl)CC1` [C1, (2-chlorobenzyl){[1-(2-methoxyethyl)-4-piperidinyl]methyl}(4-pyridinylmethyl)amine], the inhibition at 100 µM was 94% in test [1]; 37% in test [3]; 13% in test [7]; 48% in test [8]; 84% in test [5]; 65% in test [6]. The expression of hha result in test [2] is listed as “down-regulated”. Also, the expression of iss result in test [2] is “down-regulated”. Moreover, in test [2], the “expression of murD” value is on record as “down-regulated”. The “expression of thiH” value in test [2] is recorded as “down-regulated”. Besides, in test [2], the “expression of ugpC” value is on record as “down-regulated”.

Consider `Cc1ccccc1N1CCN(C2CCCN(C(=O)c3ccc(F)c(Cl)c3)C2)CC1` (stereo not drawn) [C2, 1-[1-(3-chloro-4-fluorobenzoyl)-3-piperidinyl]-4-(2-methylphenyl)piperazine], for which the inhibition at 100 µM was determined as 96% in test [1]; 43% in test [3]; 27% in test [7]; 55% in test [8]; 92% in test [5]; 57% in test [6]. In test [2], the expression of hha result was “down-regulated”. Besides, in test [2], the “expression of ugpC” value was “down-regulated”.
